# In patent publication US7858796B2, “Chemical compounds” (Glaxo Group Limited, priority 2004, dated 2010):
# Tested on: human monocyte stimulated cytokine production (TNF-α)
# Assay: Monocyte Assay (LPS-stimulated TNF-α production)
# Format: cell-based
# Conditions: human CD14+ monocytes, 200 ng/mL LPS, 24 hrs, TNF-α by ELISA
# Experimental: Effect of IKK-β inhibition on human monocyte stimulated cytokine production was assessed as follows: Monocytes were isolated from heparinized whole blood by Ficoll gradient, followed by purification of CD14+ cells using MACS magnetic cell separation beads. Isolated monocytes were then adhered to 96-well culture plates at 1×10^6 cells/mL in RPMI 1640 10% FBS (JRH Biosciences, Lenexa Kans.) for 2 h. to further enrich the monocyte population. The media was then removed, cells washed once with RPMI 1640, and 0.125 mL RPMI 1640 10% FBS was added to the wells. Test compounds are added to the wells 30 minutes prior to stimulation with a final vehicle concentration of 0.1% DMSO. Monocytes were activated by the addition of 200 ng/mL endotoxin (LPS; E. coli serotype 026:B6) (Sigma, St. Louis, Mo.) and incubated for 24 hrs at 37 C. Cell-free supernates were analyzed by ELISA for TNF-α using Pharmingen matched pair Abs. Viability of the cells was determined by10% trypan blue exclusion.
row,SMILES,IC50
1,"NC(=O)c1cc(-c2ccsc2)cc2c(C3CCN(S(=O)(=O)CCCN4CCOCC4)CC3)c[nH]c12 [Example 74, 3-(1-{[3-(4-morpholinyl)propyl]sulfonyl}-4-piperidinyl)-5-(3-thienyl)-1H-indole-7-carboxamide]",< 10 µM
2,"NC(=O)c1cc(-c2ccc(F)cc2)cc2c(C3CCN(S(=O)(=O)CCCN4CCCC4)CC3)c[nH]c12 [Example 75, 5-(4-fluorophenyl)-3-(1-{[3-(1-pyrrolidinyl)propyl]sulfonyl}-4-piperidinyl)-1H-indole-7-carboxamide]",< 10 µM
3,"CN(C)CCCS(=O)(=O)N1CCC(c2c[nH]c3c(C(N)=O)cc(-c4cccc(CO)c4)cc23)CC1 [Example 76, 3-(1-{[3-(dimethylamino)propyl]sulfonyl}-4-piperidinyl)-5-[3-(hydroxymethyl)phenyl]-1H-indole-7-carboxamide]",< 10 µM
4,"CCNCc1cccc(-c2cc(C(N)=O)c3[nH]cc(C4CCN(S(=O)(=O)CCCN(C)C)CC4)c3c2)c1 [Example 96, 3-(1-{[3-(dimethylamino)propyl]sulfonyl}-4-piperidinyl)-5-{3-[(ethylamino)methyl]phenyl}-1H-indole-7-carboxamide]",< 10 µM
5,"CC(C)(C)OC(=O)N1CCC(NCCCS(=O)(=O)N2CCC(c3c[nH]c4c(C(N)=O)cc(-c5ccccc5)cc34)CC2)CC1 [Example 108, 1,1-dimethylethyl 4-{[3-({4-[7-(aminocarbonyl)-5-phenyl-1H-indol-3-yl]-1-piperidinyl}sulfonyl)propyl]amino}-1-piperidinecarboxylate]",< 10 µM
6,"COCCCS(=O)(=O)N1CCC(c2c[nH]c3c(C(N)=O)cc(-c4ccccc4)cc23)CC1 [Example 160, 3-(1-{[3-(methyloxy)propyl]sulfonyl}-4-piperidinyl)-5-phenyl-1H-indole-7-carboxamide]",< 10 µM
7,"CC(O)C(C)OCCCS(=O)(=O)N1CCC(c2c[nH]c3c(C(N)=O)cc(-c4ccccc4)cc23)CC1 (stereo not shown) [Example 165, 3-[1-({3-[(2-hydroxy-1-methylpropyl)oxy]propyl}sulfonyl)-4-piperidinyl]-5-phenyl-1H-indole-7-carboxamide]",< 10 µM
8,"CC(C)NCc1cccc(-c2cc(C(N)=O)c3[nH]cc(C4CCN(S(=O)(=O)CCCN(C)C)CC4)c3c2)c1 [Example 214, 3-(1-{[3-(dimethylamino)propyl]sulfonyl}-4-piperidinyl)-5-(3-{[(1-methylethyl)amino]methyl}phenyl)-1H-indole-7-carboxamide]",< 10 µM
9,"CONCCS(=O)(=O)N1CCC(c2c[nH]c3c(C(N)=O)cc(-c4ccccc4)cc23)CC1 [Example 215, 3-[1-({2-[(methyloxy)amino]ethyl}sulfonyl)-4-piperidinyl]-5-phenyl-1H-indole-7-carboxamide]",< 10 µM
10,"CONCCCS(=O)(=O)N1CCC(c2c[nH]c3c(C(N)=O)cc(-c4ccccc4)cc23)CC1 [Example 219, 3-[1-({3-[(methyloxy)amino]propyl}sulfonyl)-4-piperidinyl]-5-phenyl-1H-indole-7-carboxamide]",< 10 µM
11,"COCCCS(=O)(=O)N1CCC(c2c[nH]c3c(C(N)=O)cc(-c4cccs4)cc23)CC1 [Example 262, 3-(1-{[3-(methyloxy)propyl]sulfonyl}-4-piperidinyl)-5-(2-thienyl)-1H-indole-7-carboxamide]",< 10 µM
12,"CCOCCCS(=O)(=O)N1CCC(c2c[nH]c3c(C(N)=O)cc(-c4ccsc4)cc23)CC1 [Example 263, 3-(1-{[3-(ethyloxy)propyl]sulfonyl}-4-piperidinyl)-5-(3-thienyl)-1H-indole-7-carboxamide]",< 10 µM
13,"CCOCCCS(=O)(=O)N1CCC(c2c[nH]c3c(C(N)=O)cc(-c4cccs4)cc23)CC1 [Example 264, 3-(1-{[3-(ethyloxy)propyl]sulfonyl}-4-piperidinyl)-5-(2-thienyl)-1H-indole-7-carboxamide]",< 10 µM
14,"Cn1cnc(S(=O)(=O)N2CCC(c3c[nH]c4c(C(N)=O)cc(-c5ccccc5)cc34)CC2)c1 [Example 267, 3-{1-[(1-methyl-1H-imidazol-4-yl)sulfonyl]-4-piperidinyl}-5-phenyl-1H-indole-7-carboxamide]",< 10 µM
15,"NC(=O)c1cc(-c2ccccc2)cc2c(C3CCN(S(=O)(=O)c4cccs4)CC3)c[nH]c12 [Example 268, 5-phenyl-3-[1-(2-thienylsulfonyl)-4-piperidinyl]-1H-indole-7-carboxamide]",< 10 µM
16,"NC(=O)c1cc(-c2ccccc2)cc2c(C3CCN(S(=O)(=O)c4ccc(CNCc5ccccc5)s4)CC3)c[nH]c12 [Example 271, 5-phenyl-3-{1-[(5-{[(phenylmethyl)amino]methyl}-2-thienyl)sulfonyl]-4-piperidinyl}-1H-indole-7-carboxamide]",< 10 µM

# Continued, values first:
row,IC50,SMILES
1,< 10 µM,"NC(=O)c1cc(-c2cccc(CO)c2)cc2c(C3CCN(S(=O)(=O)CCCN4CCCC4)CC3)c[nH]c12 [Example 83, 5-[3-(hydroxymethyl)phenyl]-3-(1-{[3-(1-pyrrolidinyl)propyl]sulfonyl}-4-piperidinyl)-1H-indole-7-carboxamide]"
2,< 10 µM,"NC(=O)c1cc(-c2ccccc2)cc2c(C3CCN(S(=O)(=O)CCCNC4CCNCC4)CC3)c[nH]c12 [Example 109, 5-phenyl-3-(1-{[3-(4-piperidinylamino)propyl]sulfonyl}-4-piperidinyl)-11 indole-7-carboxamide]"
3,< 10 µM,"NC(=O)c1cc(-c2ccccc2)cc2c(C3CCN(S(=O)(=O)CCCOCC4CC4)CC3)c[nH]c12 [Example 164, 3-[1-({3-[(cyclopropylmethyl)oxy]propyl}sulfonyl)-4-piperidinyl]-5-phenyl-1H-indole-7-carboxamide]"
4,< 10 µM,"NC(=O)c1cc(-c2ccccc2)cc2c(C3CCN(S(=O)(=O)CCCO)CC3)c[nH]c12 [Example 174, 3-{1-[(3-hydroxypropyl)sulfonyl]-4-piperidinyl}-5-phenyl-1H-indole-7-carboxamide]"
5,< 10 µM,"CCOCCS(=O)(=O)N1CCC(c2c[nH]c3c(C(N)=O)cc(-c4ccccc4)cc23)CC1 [Example 175, 3-(1-{[2-(ethyloxy)ethyl]sulfonyl}-4-piperidinyl)-5-phenyl-1H-indole-7-carboxamide]"
6,< 10 µM,"CCOCCCS(=O)(=O)N1CCC(c2c[nH]c3c(C(N)=O)cc(-c4ccccc4)cc23)CC1 [Example 176, 3-(1-{[3-(ethyloxy)propyl]sulfonyl}-4-piperidinyl)-5-phenyl-1H-indole-7-carboxamide]"
7,< 10 µM,"NC(=O)c1cc(-c2ccccc2)cc2c(C3CCN(S(=O)(=O)CCOCCN4CCCCC4)CC3)c[nH]c12 [Example 178, 5-phenyl-3-{1-[(2-{[2-(1-piperidinyl)ethyl]oxy}ethyl)sulfonyl]-4-piperidinyl}-1H-indole-7-carboxamide]"
8,< 10 µM,"CNCc1cccc(-c2cc(C(N)=O)c3[nH]cc(C4CCN(S(=O)(=O)CCCOC)CC4)c3c2)c1 [Example 223, 5-{3-[(methylamino)methyl]phenyl}-3-(1-{[3-(methyloxy)propyl]sulfonyl}-4-piperidinyl)-1H-indole-7-carboxamide]"
9,< 10 µM,"NC(=O)c1cc(-c2cccs2)cc2c(C3CCN(S(=O)(=O)CCCO)CC3)c[nH]c12 [Example 265, 3-{1-[(3-hydroxypropyl)sulfonyl]-4-piperidinyl}-5-(2-thienyl)-1H-indole-7-carboxamide]"
